Source: publication PMC8950700 (Pharmaceuticals, 2022)

What was measured:
[1] = test system: A/chicken/Egypt/B13825A/2017 (H5N1wild); assay: microbe, parasite or virus in culture; type: cell-based; details: read-out: IC50 (50% Inhibitory Concentration) H5N1wild
H5N1V116A virus [2] = type: cell-based, influenza A virus; details: read-out: IC50 (50% Inhibitory Concentration) H5N1V116A
H5N1N295S virus [3] = type: cell-based, influenza A virus; details: read-out: IC50 (50% Inhibitory Concentration) H5N1N295S
[4] = test system: A/California/04/2009 (H1N1); assay: microbe, parasite or virus in culture; type: cell-based; details: read-out: IC50 (50% Inhibitory Concentration) H1N1
H5N1wild virus [5] = assay: microbe, parasite or virus in culture; type: cell-based
H5N1V116A virus [6] = type: cell-based, influenza A virus
H5N1N295S virus [7] = type: cell-based, influenza A virus
H1N1 virus [8] = type: cell-based, influenza A virus; details: 5 µM
H5N1wild virus [9] = type: cell-based
H5N1V116A virus [10] = type: cell-based, influenza A virus; remark: listed apart in the source
H5N1N295S virus [11] = type: cell-based, influenza A virus; remark: listed apart in the source
H1N1 virus [12] = type: cell-based
H5N1wild virus [13] = details: mouse, in vivo
H1N1 virus [14] = details: mouse, in vivo
in vitro = details: dog

## CC(=O)N[C@H]1[C@H]([C@H](O)[C@H](O)CO)OC(C(=O)O)=C[C@@H]1N=C(N)N [zanamivir, reference compound]
[1]
  IC50: 10.4 µM
H5N1V116A virus [2]
  IC50: 127 µM
H5N1N295S virus [3]
  IC50: 15 µM
[4]
  IC50: 1.65 µM
H5N1wild virus [5]
  viral inhibition in the count of plaques, H5N1wild: 69.2%
H5N1V116A virus [6]
  viral inhibition in the count of plaques, H5N1V116A: 60%
H5N1N295S virus [7]
  viral inhibition in the count of plaques, H5N1N295S: 31%
H1N1 virus [8]
  viral inhibition in the count of plaques, H1N1: 96.5%
H5N1wild virus [9]
  inhibition in the viral HA titer, H5N1wild: not more than 25%
H5N1V116A virus [10]
  inhibition in the viral HA titer, H5N1V116A: not more than 80%
H5N1N295S virus [11]
  inhibition in the viral HA titer, H5N1N295S: not more than 25%
H1N1 virus [12]
  inhibition in the viral HA titer, H1N1: not more than 80%
H5N1wild virus [13]
  viral titer in lung tissue (TCID50), H5N1wild: reduced the titration
H1N1 virus [14]
  mortality after infection with H1N1: 40%
  viral titer in lung tissue (TCID50), H1N1: reduced the titration
  virus shedding in the nasal wash (EID50), H1N1: significantly reduced the viral titer
In vitro
  CC50 at 72 h: 589 µM
